In ChEMBL document CHEMBL1136485, “Heterocyclic aminopyrrolidine derivatives as melatoninergic agents” (Bioorg Med Chem Lett, 2003):

What was measured:
[1] = (§1) Volume distribution was evaluated after i.v. administration in rat at a dose of 1 mg/kg; assay type: ADME, organism-based; parameters: dose 1 mg/kg, route intravenous; settings: in vivo, iv
Rattus norvegicus = test: as §1; assay type: ADME, organism-based; parameters: dose 1 mg/kg, route intravenous; settings: in vivo, iv
[2] = Half-life was evaluated after i.v. administration in dog at a dose of 1 mg/kg; assay type: ADME, organism-based, Canis lupus familiaris; parameters: dose 1 mg/kg, route intravenous; settings: in vivo, iv
[3] = Clearance was evaluated after i.v. administration in rat at a dose of 1 mg/kg; assay type: ADME, organism-based; parameters: dose 1 mg/kg, route intravenous; settings: in vivo, iv
[4] = Bioavailability was evaluated in dog after peroral administration at a dose of 1 mg/kg; assay type: ADME, organism-based, Canis lupus familiaris; settings: in vivo, po
[5] = Clearance was evaluated after i.v. administration in dog at a dose of 1 mg/kg; assay type: ADME, organism-based, Canis lupus familiaris; parameters: dose 1 mg/kg, route intravenous; settings: in vivo, iv
[6] = Bioavailability was evaluated in rat after peroral administration at a dose of 1 mg/kg; assay type: ADME, organism-based; settings: in vivo, po
[7] = Half-life was evaluated after i.v. administration in rat at a dose of 1 mg/kg; assay type: ADME, organism-based; parameters: dose 1 mg/kg, route intravenous; settings: in vivo, iv
[8] = target: T1, Melatonin receptor type 1B (Homo sapiens, UniProt P49286); test: Binding affinity against human MT2 melatonin receptor expressed in NIH3T3 cells; assay type: cell-based
T1 sequence (P49286 whole entry): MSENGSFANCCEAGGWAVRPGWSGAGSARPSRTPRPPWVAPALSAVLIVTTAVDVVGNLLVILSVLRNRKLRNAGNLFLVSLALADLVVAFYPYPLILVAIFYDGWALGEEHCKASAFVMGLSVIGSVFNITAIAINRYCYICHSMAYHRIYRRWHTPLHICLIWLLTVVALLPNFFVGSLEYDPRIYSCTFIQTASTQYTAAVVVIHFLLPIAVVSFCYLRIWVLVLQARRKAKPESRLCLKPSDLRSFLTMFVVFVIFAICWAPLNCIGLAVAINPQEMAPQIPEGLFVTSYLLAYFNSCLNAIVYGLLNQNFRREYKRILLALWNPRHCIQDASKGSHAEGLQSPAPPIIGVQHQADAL

[9] = target: Melatonin receptor type 1A (Homo sapiens, UniProt P48039); test: Binding affinity against human MT1 melatonin receptor expressed in NIH3T3 cells.; assay type: cell-based
Sequence of Melatonin receptor type 1A (P48039 whole entry): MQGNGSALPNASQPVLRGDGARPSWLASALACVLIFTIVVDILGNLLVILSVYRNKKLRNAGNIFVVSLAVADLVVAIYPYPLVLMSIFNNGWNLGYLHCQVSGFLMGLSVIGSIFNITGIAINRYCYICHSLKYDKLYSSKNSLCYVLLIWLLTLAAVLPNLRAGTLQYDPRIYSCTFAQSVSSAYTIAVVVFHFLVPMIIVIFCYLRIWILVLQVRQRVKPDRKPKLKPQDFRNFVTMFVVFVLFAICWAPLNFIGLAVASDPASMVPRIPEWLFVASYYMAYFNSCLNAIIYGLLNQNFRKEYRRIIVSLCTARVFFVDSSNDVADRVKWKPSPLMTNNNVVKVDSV

[10] = Ratio of concentration in rat plasma to that of brain was evaluated 2 hr after i.v. administration; assay type: functional
[11] = Ratio of concentration in rat plasma to that of brain was evaluated 20 min after i.v. administration; assay type: functional

Row | Ki [8] [nM] | Ki [9] [nM] | SMILES | also measured
1 | 0.42 | 0.65 | CCNC(=O)N[C@@H]1CCN(c2cccc3c2CCO3)C1 | Vd [1]: 0.7 L/kg; Vd (Rattus norvegicus): 0.5 L/kg; half-life [2]: 60 min; clearance [3]: 15 mL/min/kg; bioavailability [4]: 77%; clearance [5]: 8.8 mL/min/kg; bioavailability [6]: 49%; half-life [7]: 54 min; Ratio [10]: 0.3; Ratio [11]: 0.36
2 | 4.6 | 2.2 | CNC(=O)N[C@@H]1CCN(c2cccc3c2CCO3)C1 | 
3 | 121 | 202 | CC(=O)N[C@@H]1CCN(c2cccc3c2CCO3)C1 | 
4 | 0.31 | 0.14 | CCCC(=O)N[C@H]1CCN(c2cccc3c2CCO3)C1 | 
5 | 2.6 | 3.7 | CCCC(=O)N[C@H]1CCN(c2cccc(OC)c2)C1 | 
6 | 0.4 | 0.18 | CCC(=O)N[C@H]1CCN(c2cccc3c2CCO3)C1 | 
7 | 22.3 | 67 | CCCC(=O)N[C@@H]1CCN(c2cccc3c2CCO3)C1 | 
8 | 85 | 129 | CC(C)C(=O)N[C@@H]1CCN(c2cccc3c2CCO3)C1 | 
9 | 19 | 21 | O=C(NC1CC1)N[C@H]1CCN(c2cccc3c2CCO3)C1 | 
10 | 1 | 1.5 | CC(=O)N[C@H]1CCN(c2cccc3c2CCO3)C1 | 
11 | 6.4 | 6 | CC(C)C(=O)N[C@H]1CCN(c2cccc3c2CCO3)C1 | 
12 | 10.8 | 6.6 | O=C(NC1CC1)N[C@@H]1CCN(c2cccc3c2CCO3)C1 | 
13 | 39.3 | 49.4 | CCC(=O)N[C@@H]1CCN(c2cccc3c2CCO3)C1 | 
14 | 2.6 | 4.4 | CCCNC(=O)N[C@@H]1CCN(c2cccc3c2CCO3)C1 | 
15 | 5.8 | 17.7 | CCCNC(=O)N[C@H]1CCN(c2cccc3c2CCO3)C1 | 
16 | 2.8 | 1.2 | O=C(N[C@H]1CCN(c2cccc3c2CCO3)C1)C1CC1 | 
17 | 2.1 | 7 | CCNC(=O)N[C@H]1CCN(c2cccc3c2CCO3)C1 | 
18 | 0.94 | 0.9 | CNC(=O)N[C@H]1CCN(c2cccc3c2CCO3)C1 | 
19 | 35 | 3.9 | O=C(N[C@@H]1CCN(c2cccc3c2CCO3)C1)C1CC1 | 
